Measurements reported in PMC6749218, “Structure-Based Pharmacophore Design and Virtual Screening for Novel Tubulin Inhibitors with Potential Anticancer Activity” (Molecules, 2019).

System: T1, tubulin
T1 construct: gene TUBB2B
Experiment: turbidimetric tubulin polymerization assay ([…] nm)
Format: biochemical
Details: tubulin 10 µM

## COc1ccc(OC)c(/C=C/C(=O)c2ccc(OC)cc2OC)c1 [compound 1, hit 1]
  IC50: 3.7 ± 0.5 µM
